Experimental data as given in US5834415A, “Naphthalene boronic acids” (Novo Nordisk A/S, priority 1994, dated 1998).
Where two headings read alike, the source gives them in different places.

Key:
Alcalase = target: T1, Alcalase (Bacillus licheniformis, UniProt P00780); assay: Determination of Ki, inhibition of Alcalase; format: biochemical
T1 construct: purchased Novo Nordisk A/S
T1 sequence (P00780 106-379): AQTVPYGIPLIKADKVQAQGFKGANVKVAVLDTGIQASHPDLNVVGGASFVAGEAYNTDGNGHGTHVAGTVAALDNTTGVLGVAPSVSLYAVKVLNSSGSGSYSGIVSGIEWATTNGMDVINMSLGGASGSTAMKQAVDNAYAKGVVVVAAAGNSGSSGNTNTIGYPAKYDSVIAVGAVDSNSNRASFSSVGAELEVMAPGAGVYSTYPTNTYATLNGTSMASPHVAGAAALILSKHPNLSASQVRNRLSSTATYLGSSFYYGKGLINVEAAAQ
Source text: (§1) c) Determination of Ki : The inhibition constant Ki may be determined by using standard methods, for reference see Keller et al, Biochem. Biophys. Res. Com. 176, 1991, pp.401-405; J. Bieth in Bayer-Symposium "Proteinase Inhibitors", pp. 463-469, Springer-Verlag, 1974 and Lone Kierstein Hansen in "Determination of Specific Activities of Selected Deterrent Proteases using Protease Activity, Molecular Weights, Kinetic Parameters and Inhibition Kinetics", PhD-report, Novo Nordisk A/S and University of Copenhagen, 1991.
(§2) The inhibition constant Ki for the inhibition of Alcalase and Savinase was determined using standard methods under the following conditions:
(§3) Substrate: Succinyl-Alanine-Alanine-Proline-Phenylalanine-paranitro-anilide=SAAPFpNA (Sigma S-7388).
(§4) Buffer: 0.1M Tris-HCl pH 8.6; 25° C.
(§5) Enzyme concentration in assay:
(§6) The initial rate of substrate hydrolysis was determined at nine substrate concentrations in the range of 0.01 to 2 mM using a Cobas Fara automated spectrophotometer. The kinetic parameters Vmax and Km were determined using ENZFITTER (a non-linear regression data analysis program). kcat was calculated from the equation Vmax =kcat ×[Eo ]. The concentration of active enzyme [Eo ] was determined by active site titration using tight-binding protein proteinase inhibitors. The inhibition constant Ki was calculated from plots of Km /kcat as a function of the concentration of inhibitor. The inhibitors were assumed to be 100% pure and the molar concentrations were determined using weighing numbers and molecular weights.

Savinase = target: T2, Savinase (Lederbergia lenta, UniProt P29600); assay: Determination of Ki, inhibition of Savinase; format: biochemical, Bacillus
T2 construct: purchased Novo Nordisk A/S
T2 sequence (P29600 1-269): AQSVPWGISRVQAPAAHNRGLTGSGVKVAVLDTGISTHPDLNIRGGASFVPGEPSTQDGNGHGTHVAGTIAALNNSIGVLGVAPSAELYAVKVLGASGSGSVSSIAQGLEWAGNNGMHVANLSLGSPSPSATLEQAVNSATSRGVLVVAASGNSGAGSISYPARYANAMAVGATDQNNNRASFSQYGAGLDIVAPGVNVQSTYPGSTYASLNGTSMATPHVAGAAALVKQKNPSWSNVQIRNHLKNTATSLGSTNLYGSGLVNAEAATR
Source text: as §1, §2, §3, §4, §5, §6

subtilisin = conditions: Keller et al, Biochem. Biophys. Res. Com. 176, 1991, pp. 401-405; cited from earlier work
proteolytic enzymes = conditions: prior art; WO 92/19707 for acetamidobenzene boronic acid; cited from earlier work
[1] = substrate SAAPFpNA, 0.1M Tris-HCl pH 8.6, 25° C., Alcalase 1×10^-10 - 3×10^-10 M, read-out: Ki Alcalase
[2] = substrate SAAPFpNA, 0.1M Tris-HCl pH 8.6, 25° C., Savinase 1×10^-10 - 3×10^-10 M, read-out: Ki Savinase

Compound	Ki (Alcalase; [1]) [µM]	Ki (Savinase; [2]) [µM]	also measured
OB(O)c1cccc2ccccc12 [Naphthalene-1-boronic acid, Naphthalene-1-Boronic Acid]	500	900	
CB(O)O [methylboronic acid]			capacity as subtilisin inhibitor (subtilisin): poorest inhibitor
OB(O)c1cc(Cl)cc(Cl)c1 [3,5-dichlorophenylboronic acid]			capacity as subtilisin inhibitor (subtilisin): particularly effective
OB(O)c1ccc2ccccc2c1 [Naphthalene-2-boronic acid, Naphthalene-2-Boronic Acid]	400	300	
acetamidobenzene boronic acid			inhibition of proteolytic enzymes (proteolytic enzymes): superior inhibitor of proteolytic enzymes
OB(O)O [Boric acid]			inhibition of proteolytic enzymes (proteolytic enzymes): reversibly inhibit proteolytic enzymes; Ki (Alcalase): 30000 µM; Ki (Savinase): 20000 µM
OB(O)c1ccc2cc(O)ccc2c1 [6-hydroxynaphthalene-2-boronic acid]	500	600	
